Each block holds one molecule with its values, some of them ahead of it.
Assays:
[1] = Blood-plasma PK after topical eye drop administration; details: for concentration at 6 h: Plasma concentration at 6 h
Protocol: (§1) A total number of 59 rabbits were included in this part of the study. All rabbits were consecutively assigned to one of the two study groups. […] Group 2 animals were dosed with 0.15% candesartan eye drops, while 23 rabbits received a single dose and 5 rabbits received multiple doses of the eye drops. Single dose rabbits of both groups were additionally randomized to one of five euthanasia time points: 0.5 h ± 5 min, 1.5 h ± 5 min, 3 h ± 10 min, 6 h ± 15 min or 12 h ± 30 min after instillation. In all animals, 35 μL of the study drug were instilled in the conjunctival sac of the right eye with a calibrated pipette using single-use dispensers. Single dose animals were instilled only once while multiple dose animals were instilled twice daily for a total of 5 days. In all animals only the right eye was treated. To assess drug concentrations, eyes were enucleated at the end of the study period. Before enucleation, rabbits were euthanized in deep anesthesia (ketamine 60 mg/kg, xylazine 16 mg/kg, s.c.) by an intravenous over-dose of pentobarbitone sodium (300 mg/kg i.v.) and enucleation was performed immediately after euthanasia. Single dose animals were enucleated at one of the five specified time-points. Multiple dose animals were euthanized 1 h ± 30 min after the last drug administration. From each animal both eyes were enucleated and stored at −80 °C. For separation of the different ocular tissues, the eyeball was removed from −80 °C storage and corneal tissue, aqueous humor, vitreous humor and retinal/choroidal tissue were dissected. The tissues were collected separately in individual tubes, which were weighed and then stored at −80 °C.
A venous blood sample of 2 mL was collected from the saphenous vein before the (first) drug administration and prior to euthanasia to determine systemic drug exposure at baseline and after drug administration. The blood was centrifuged for 10 min at a temperature of 10 °C and a speed of 3000 rpm. The resulting supernatant was separated and stored in a tube at −80 °C until further processing.
(§2) Both, the eye-tissue and plasma samples were shipped to Nucro-Technics (Nucro-Technics, 2000 Ellesmere Road, Unit #16, Scarborough, ON, Canada) for quantitative analysis. For this purpose, a new liquid chromatography/tandem mass spectrometry method for simultaneous quantification of candesartan and irbesartan in rabbit eye tissues including cornea, aqueous humor, vitreous body and retina was developed. The exact method and validation are described in detail elsewhere.
(§3) This study was designed to assess pharmacokinetics and local tolerability, no formal sample size calculation has been performed. Descriptive statistics was used for all quantitative data to describe drug concentrations after the single and multiple dosing in the different tissues. […] For pharmacokinetic calculations Phoenix WinNonlin 8.1 (Certara, Princeton, NJ, USA) was used, and the statistical analysis was done using CSS Statistica 6.0 (Tulsa, OK, USA).
(§4) To facilitate calculation of the PK parameters, a plausibility check was performed and values below the lower limit of quantification (BLOQ; plasma: <0.05 ng/mL; tissue: <5 ng/g (irbesartan), <2 ng/g (candesartan)) were set to 0. […] All baseline plasma sample values were set to zero.

[2] = Pre-formulation studies (γCD complexation, physicochemical parameters)
Protocol: Pre-formulation studies with different candesartan (0.1–0.2%) and irbesartan (1.0–2.0%) concentrations were performed to find the optimal drug concentration for the animal experiments.

[3] = molecular target: angiotensin II receptor (AT1 subtype); details: cited from earlier work
[4] = Single-dose ocular bio-distribution and pharmacokinetics of topical γCD based eye drops (LC-MS/MS of ocular tissues); details: for Cmax / Tmax: topical or ocular
Protocol: as §1, §2, §3, §4

[5] = Multiple-dose ocular bio-distribution (twice daily for 5 days, tissues 1 h after last dose); details: New Zealand White, rabbit, topical, 35 µL
Protocol: as §1, with “Single dose animals were enucleated at one of the five specified time-points. Multiple dose animals were euthanized 1 h ± 30 min after the last drug administration. From each animal both eyes were enucleated and stored at −80 °C. For separation of the different ocular tissues, the eyeball was removed from −80 °C storage and corneal tissue, aqueous humor, vitreous humor and retinal/choroidal tissue were dissected. The tissues were collected separately in individual tubes, which were weighed and then stored at −80 °C.” left out
as §2, with “The exact method and validation are described in detail elsewhere.” left out
This study was designed to assess pharmacokinetics and local tolerability, no formal sample size calculation has been performed. Descriptive statistics was used for all quantitative data to describe drug concentrations after the single and multiple dosing in the different tissues. […]
To facilitate calculation of the PK parameters, a plausibility check was performed and values below the lower limit of quantification (BLOQ; plasma: <0.05 ng/mL; tissue: <5 ng/g (irbesartan), <2 ng/g (candesartan)) were set to 0. […]

[6] = New Zealand White, rabbit, plasma, topical or ocular, 35 µL
[7] = New Zealand White, rabbit, in vivo, topical or ocular
[8] = New Zealand White, rabbit, in vivo

Cmax [1, 6]: 4.32 ± 1.04 ng/mL | Tmax [1, 6]: 30 min | half-life [1, 6]: 584 min | concentration at 1 h after last dose ([1]; New Zealand White, rabbit, plasma, topical, 35 µL, Mean plasma levels (Cmean) after the last dose, multiple doses twice daily for 5 days): 4.78 ± 1.48 ng/mL | Plasma AUC ([1]; single topical administration, AUC 0 h-12 h): 8.75 (ng/mL)*h | Complexing efficiency of the γCD complex ([2]; compared with irbesartan): lower | Cmax ([4]; New Zealand White, rabbit, aqueous humor, treated study eye, 35 µL, Cmax SE, aqueous humor (AH), single dose, study eye, mean ± SD, also published separately [20]): 30 ± 14 ng/g | Tmax ([4]; New Zealand White, rabbit, aqueous humor, treated study eye, 35 µL, Tmax SE, aqueous humor (AH), single dose, study eye, also published separately [20]): 180 min | Cmax ([4]; New Zealand White, rabbit, aqueous humor, untreated control eye, 35 µL, Cmax CE, aqueous humor (AH), single dose, control eye, also published separately [20]): < 2 ng/g | Cmax ([4]; New Zealand White, rabbit, corneal tissue, treated study eye, 35 µL, Cmax SE, corneal tissue (CT), single dose, study eye, mean ± SD, also published separately [20]): 3500 ± 801 ng/g | Tmax ([4]; New Zealand White, rabbit, corneal tissue, treated study eye, 35 µL, Tmax SE, corneal tissue (CT), single dose, study eye, also published separately [20]): 90 min | Cmax ([4]; New Zealand White, rabbit, corneal tissue, untreated control eye, 35 µL, Cmax CE, corneal tissue (CT), single dose, control eye, mean ± SD, also published separately [20]): 2 ± 4 ng/g | Tmax ([4]; New Zealand White, rabbit, corneal tissue, untreated control eye, 35 µL, Tmax CE, corneal tissue (CT), single dose, control eye, also published separately [20]): 30 min | Cmax ([4]; New Zealand White, rabbit, retinal tissue, 35 µL, Retinal tissue single dose Cmax in molar units, single dose, assuming molar weight 428.54 g/mol irbesartan, 440.45 g/mol candesartan): 144 nM | Cmax ([4]; New Zealand White, rabbit, retinal/choroidal tissue, treated study eye, 35 µL, Cmax SE, retinal(choroidal) tissue (RT), single dose 35 μL topical, mean ± SD): 63 ± 39 ng/g | Tmax ([4]; New Zealand White, rabbit, retinal/choroidal tissue, treated study eye, 35 µL, Tmax SE, retinal tissue (RT), single dose, study eye): ≤ 30 min | half-life ([4]; New Zealand White, rabbit, retinal/choroidal tissue, treated study eye, topical, 35 µL): 323 min | Cmax ([4]; New Zealand White, rabbit, retinal/choroidal tissue, untreated control eye, 35 µL, Cmax CE, retinal tissue (RT), single dose, mean ± SD): < 2 ng/g | Tmax ([4]; New Zealand White, rabbit, retinal/choroidal tissue, untreated control eye, 35 µL, Tmax CE, retinal tissue (RT), single dose, control eye): 30 min | Cmax ([4]; New Zealand White, rabbit, vitreous humor, treated study eye, 35 µL, Cmax SE, vitreous humor (VH), single dose, study eye, mean ± SD): < 2 ng/g | Tmax ([4]; New Zealand White, rabbit, vitreous humor, treated study eye, 35 µL, Tmax SE, vitreous humor (VH), single dose, study eye): 30 min | Cmax ([4]; New Zealand White, rabbit, vitreous humor, untreated control eye, 35 µL, Cmax CE, vitreous humor (VH), single dose, control eye): < 2 ng/g | Time of maximum retinal drug concentration after single administration ([4]; single dose, retina): 30 min | Retinal tissue AUC ([4]; single dose, study eye, AUC 0 h-12 h): 210 ng·h/g | Cmax SE, vitreous humor (VH) ([4]; single dose, study eye, mean ± SD): <2 ng/g | concentration at 1 h after last dose ([5]; retinal tissue, Retinal tissue Cmean in molar units, multiple dose, assuming molar weight 428.54 g/mol irbesartan, 440.45 g/mol candesartan): 82 nM | concentration at 1 h after last dose ([5]; retinal/choroidal tissue, treated study eye, Cmean retinal tissue (RT), SE, multiple doses twice daily 5 days, 1 h ± 30 min after last dose, study eye, mean ± SD): 36 ± 10 ng/g | concentration at 1 h after last dose ([5]; vitreous humor, treated study eye, Cmean vitreous humor (VH), SE, multiple doses, 1 h after last dose, study eye): < 2 ng/g
Compound: CCOc1nc2cccc(C(=O)O)c2n1Cc1ccc(-c2ccccc2-c2nnn[nH]2)cc1 [candesartan]
IC50 [3]: 400 pM | Cmax CE, vitreous humor (VH) ([4]; single dose, control eye): below the respective lower quantification limit

concentration at 6 h ([1]; New Zealand White, rabbit, in vivo, mean of the other concentrations (outlier excluded)): 1.16 ng/mL | concentration at 6 h ([1]; New Zealand White, rabbit, in vivo, single value defined as outlier): 65.2 ng/mL | Cmax [1, 7]: 5.64 ± 4.08 ng/mL | Tmax [1, 7]: 30 min | half-life [1, 7]: 1060 min | Plasma AUC ([1]; rabbit, in vivo, topical or ocular): 17.64 (ng/mL)*h | Affinity for the γCD cavity ([2]; among telmisartan, olmesartan, irbesartan and candesartan): highest affinity | Retinal tissue AUC [4, 8]: 941 ng·h/g | Retinal tissue AUC relative to the corresponding candesartan AUC [4, 8]: around 4.5 times | Time of maximum retinal drug concentration after single administration [4, 8]: 30 min | concentration at 0.5 h [4, 8]: 14 ± 16 ng/g | half-life [4, 8]: 199 min | Cmax ([4]; New Zealand White, rabbit, in vivo, Cmax CE, aqueous humor (AH)): < 5 ng/g | Cmax ([4]; New Zealand White, rabbit, in vivo, Cmax CE, corneal tissue (CT)): 49 ± 85 ng/g | Cmax ([4]; New Zealand White, rabbit, in vivo, Cmax CE, retinal tissue (RT)): 23 ± 34 ng/g | Cmax ([4]; New Zealand White, rabbit, in vivo, Cmax CE, vitreous humor (VH)): < 5 ng/g | Cmax ([4]; New Zealand White, rabbit, in vivo, Cmax SE, aqueous humor (AH)): 121 ± 69 ng/g | Cmax ([4]; New Zealand White, rabbit, in vivo, Cmax SE, corneal tissue (CT)): 3660 ± 988 ng/g | Cmax ([4]; New Zealand White, rabbit, in vivo, Cmax SE, retinal(choroidal) tissue (RT)): 251 ± 142 ng/g | Cmax ([4]; New Zealand White, rabbit, in vivo, Cmax SE, vitreous humor (VH)): 14 ± 16 ng/g | Tmax ([4]; New Zealand White, rabbit, in vivo, Tmax CE, aqueous humor (AH)): 30 min | Tmax ([4]; New Zealand White, rabbit, in vivo, Tmax CE, corneal tissue (CT)): 90 min | Tmax ([4]; New Zealand White, rabbit, in vivo, Tmax CE, retinal tissue (RT)): 30 min | Tmax ([4]; New Zealand White, rabbit, in vivo, Tmax CE, vitreous humor (VH)): 30 min | Tmax ([4]; New Zealand White, rabbit, in vivo, Tmax SE, aqueous humor (AH)): 180 min | Tmax ([4]; New Zealand White, rabbit, in vivo, Tmax SE, corneal tissue (CT)): 90 min | Tmax ([4]; New Zealand White, rabbit, in vivo, Tmax SE, retinal tissue (RT)): ≤ 30 min | Tmax ([4]; New Zealand White, rabbit, in vivo, Tmax SE, vitreous humor (VH)): 30 min
Compound: CCCCC1=NC2(CCCC2)C(=O)N1Cc1ccc(-c2ccccc2-c2nnn[nH]2)cc1 [irbesartan]
IC50 [3]: 1300 pM | Cmax CE, vitreous humor (VH) ([4]; rabbit, in vivo): below the respective lower quantification limit
